We go through two compounds from PMC8695704 (RSC Advances, 2021).

The test concerns the target T1, recombinant human S-COMT (Homo sapiens, UniProt P21964).
T1 sequence (P21964 1-221 isoform P21964-2): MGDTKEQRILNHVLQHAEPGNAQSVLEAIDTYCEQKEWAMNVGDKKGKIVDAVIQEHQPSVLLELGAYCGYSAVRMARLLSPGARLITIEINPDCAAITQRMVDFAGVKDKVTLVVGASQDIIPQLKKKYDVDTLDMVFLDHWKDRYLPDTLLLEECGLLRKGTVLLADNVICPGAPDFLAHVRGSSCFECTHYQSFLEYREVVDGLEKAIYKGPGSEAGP
In words: COMT inhibition assay with the fluorescent probe substrate 3-BTD. In kind it is biochemical. The settings on record: IC50, 3-BTD as substrate.

As to `O=C(O)[C@H]1O[C@@H](Oc2cc3oc(-c4ccc(O)cc4)cc(=O)c3c(O)c2O)[C@H](O)[C@@H](O)[C@@H]1O` [Scutellarin, scutellarin], the IC50 stood at 0.221 ± 0.032 µM. As for `COc1c(O)cc(O)c2c(=O)cc(-c3ccccc3)oc12` [Wogonin, wogonin], the figure is 24.1 ± 4.96 µM.

What is called IC50 is the point on the concentration scale where inhibition reaches its midpoint.
